Experimental data as given in patent publication US20040097515A1, “Antimicrobial drug reduced in effect on heart” (priority 2001, published 2004).
Entries after “also recorded” stand apart in the source; their conditions may differ.

Key:
[1] = Japanese Journal of Chemotherapy, Volume 47, 1999; cited from earlier work
[2] = Japanese Journal of Chemotherapy, Volume 47, 1999; cited from earlier work; remark: listed apart in the source
[3] = tested on: guinea pig right ventricular myocardium sample; assay: APD prolonging effect, action potential of guinea pig right ventricular myocardium sample; format: cell-based; details: for relative strength of APD prolonging effect, Tukey test / APD prolonging effect (rate of change in APD90 with respect to the initial value), Average: after 60 minute-exposure; for relative strength of APD prolonging effect, Tukey test: statistically significant difference; for relative strength of APD prolonging effect: at each of the measured points; for myocardial action potential duration, effect of exposure: exposed for 10 minutes or more, paired t-test; for APD prolonging effect (rate of change in APD90 with respect to the initial value), Average: Dose 100 (μM)
Experimental: Slc: Hartley male guinea pigs (body weight: 322 to 667 g each) were employed as subjects.
Each of compound (I), compound (II), and gatifloxacin was dissolved in an aqueous 1% lactic acid solution, to thereby prepare a 10 mM solution. The resultant solution was employed as a drug solution.
Measurement of action potential was performed as follows. Specifically, the heart was quickly removed from each of the guinea pigs, and in a nutrition solution (Krebs-Henseleit) aerated with 95% O2+5% CO2 at room temperature, the right ventricular free wall was dissected to thereby prepare a myocardium sample. By use of an injection needle and platinum bipolar electrodes for electric stimulation, the sample was horizontally fixed onto a silicon block within a 20 ml organ bath (maintained at 36.5±0.5° C.) perfused with the nutrition solution aerated with 95% O2+5% CO2. During the test, the sample was electrically stimulated at a frequency of 1 Hz by means of rectangular pulses (voltage: about 1.3 times the threshold at which contraction of the sample is initiated, duration: 1 msec) provided from an electrostimulator via the platinum bipolar electrodes. The action potential of the cells was measured via glass microelectrodes (electrode resistance: 5 to 30 MΩ) which were filled with a 3 M KCl solution and connected to an amplifier for microelectrodes, and the action potential was recorded and analyzed by use of a computer. After electrical stimulation of the sample was continued for one hour or more, the action potential was measured before administration of the drug solution, and 10, 20, 30, 40, 50, and 60 minutes after administration of the drug solution. At each point in time, the action potential was measured and recorded in triplicate, and the average of the measured potentials was taken as the value for that point in time.
The drug solution (200 μL) was added to the 20 mL organ bath by use of a micropipette (final concentration of the drug solution in the bath: 100 μM). On the basis of the thus-measured action potential waveform, resting membrane potential (RMP), overshoot (OS), action potential amplitude (APA), action potential durations at 20%, 50%, and 90% repolarization (APD20, APD50, and APD90), and maximum rising velocity (Vmax) were obtained.
In each of the groups, the paired t-test was performed on the initial value of APD90 and on the action potential measured at each of the aforementioned points in time. Also, time-course variance analysis was performed, and the action potential after the 60 minute-exposure of the sample to the drug solution was subjected to the Tukey test, to thereby perform comparison between the groups. The level of significance was set at 5%, two-sided.

P. aeruginosa, 32121 = assay: Antimicrobial activity, standard method of Japanese Society of Chemotherapy; format: cell-based
Experimental: (§1) The antimicrobial activity of the thus-obtained compound was measured by means of the standard method of Japanese Society of Chemotherapy.

E. Coli, NIHJ = assay: as above; format: cell-based
Experimental: as §1

S. aureus, FDA 209-P = assay: as above; format: cell-based
Experimental: as §1

S. epidermidis, 56500 = assay: as above; format: cell-based
Experimental: as §1

P. aeruginosa, 32104 = assay: as above; format: cell-based
Experimental: as §1

S. marcescens, 101000 = assay: as above; format: cell-based
Experimental: as §1

P. vulgaris 08601 = assay: as above; format: cell-based
Experimental: as §1

E. faecalis, 19433 = assay: as above; format: cell-based
Experimental: as §1

[4] = 100 μM, Time 10 (minutes after administration)
[5] = 100 μM, Time 20 (minutes after administration)
[6] = 100 μM, Time 30 (minutes after administration)
[7] = 100 μM, Time 40 (minutes after administration)
[8] = 100 μM, Time 50 (minutes after administration)
[9] = 100 μM, Time 60 (minutes after administration)
[10] = Time 0, initial value before administration of the drug solution

Structure (SMILES) | antimicrobial activity, difference between the antipodes [1] | pharmacokinetic action in the body, difference between the antipodes [2] | myocardial action potential duration (APD90), Average [3, 4] | myocardial action potential duration (APD90), Average [3, 5] | myocardial action potential duration (APD90), Average [3, 6] | myocardial action potential duration (APD90), Average [3, 7] | myocardial action potential duration (APD90), Average [3, 8] | myocardial action potential duration (APD90), Average [3, 9] | relative strength of APD prolonging effect, Tukey test ([3]; 100 μM) | relative strength of APD prolonging effect ([3]; 100 μM) | myocardial action potential duration, effect of exposure ([3]; 100 μM) | APD prolonging effect (rate of change in APD90 with respect to the initial value), Average [3] | myocardial action potential duration (APD90), Average [3, 10] | other results
COc1c(N2CCN[C@@H](C)C2)c(F)cc2c(=O)c(C(=O)O)cn(C3CC3)c12 [Compound (I), 1-Cyclopropyl-6-fluoro-1,4-dihydro-8-methoxy-7-{3-(S)-methylpiperazin-1-yl}-4-oxoquinoline-3-carboxylic acid] | no great difference | no great difference | 175.7500 | 180.2217 | 184.2600 | 190.6275 | 192.0675 | 193.5025 | compound (II)>gatifloxacin>compound (I) | compound (II)>gatifloxacin>compound (I) | significantly prolonged | 11.2206 | 170.3200 | strength of APD prolonging effect compared with gatifloxacin and the antipode ([3]; 100 μM): significantly lower APD prolonging effect; also recorded: lower than that of the prolonging effect of gatifloxacin or compound (II); antimicrobial activity (P. aeruginosa, 32121): 0.10; antimicrobial activity (E. Coli, NIHJ): ≦0.003; antimicrobial activity (S. aureus, FDA 209-P): 0.05; antimicrobial activity (S. epidermidis, 56500): 0.20; antimicrobial activity (P. aeruginosa, 32104): 0.20; antimicrobial activity (S. marcescens, 101000): 0.10; antimicrobial activity (P. vulgaris 08601): 0.006; antimicrobial activity (E. faecalis, 19433): 0.39
COc1c(N2CCN[C@H](C)C2)c(F)cc2c(=O)c(C(=O)O)cn(C3CC3)c12 [Compound (II), 1-Cyclopropyl-6-fluoro-1,4-dihydro-8-methoxy-7-{3-(R)-methylpiperazin-1-yl}-4-oxoquinoline-3-carboxylic acid] | no great difference | no great difference | 185.9917 | 191.9500 | 194.2750 | 205.5900 | 203.1350 | 206.9400 | compound (II)>gatifloxacin>compound (I) | compound (II)>gatifloxacin>compound (I) | significantly prolonged | 17.1760 | 176.1567 | 
COc1c(N2CCNC(C)C2)c(F)cc2c(=O)c(C(=O)O)cn(C3CC3)c12 (stereo not shown) [Gatifloxacin] |  |  | 180.6120 | 184.9200 | 192.2467 | 190.8950 | 201.5533 | 196.4925 | compound (II)>gatifloxacin>compound (I) | compound (II)>gatifloxacin>compound (I) | significantly prolonged | 13.7789 | 174.8600 | 
